{"source": "paper PMC2248166", "about": "“Quantitative peptide binding motifs for 19 human and mouse MHC class I molecules derived using positional scanning combinatorial peptide libraries” (Immunome Research, 2008)", "note": "Where a SMILES comes first, the peptide text is derived from it."}
{"molecular_target": "HLA A*3201 (Homo sapiens, UniProt P04439, A270S/D101S/D185E/E176V/E277Q/F133L/G103R/G107R/G231S/H175R/I121M/I218V/I322F/K168Q/L105A/L300P/L318F/M331R/P208A/P217A/Q94H/R106L/R138Q/S129P/T104I/T323A/T345S/V100E/V321M/V358M)", "experiment": "biochemical", "format": "binding", "units": {"IC50": "nM"}}
{"smiles": "CC[C@H](C)[C@H](N)C(=O)N[C@H](C(=O)N[C@@H](Cc1ccccc1)C(=O)N[C@@H](CC(=O)O)C(=O)N[C@H](C(=O)N[C@@H](Cc1ccc(O)cc1)C(=O)N[C@@H](Cc1ccccc1)C(=O)N[C@@H](C)C(=O)N[C@H](C(=O)O)[C@@H](C)CC)[C@@H](C)CC)[C@@H](C)CC", "note": "[3102.0346] (H-IIFDIYFAI-OH)", "IC50": 0.93}
{"smiles": "CC[C@H](C)[C@H](NC(=O)[C@H](CC(C)C)NC(=O)[C@H](C)NC(=O)[C@@H](NC(=O)[C@H](C)N)[C@@H](C)O)C(=O)N[C@@H](CC(C)C)C(=O)N[C@H](C(=O)N[C@@H](CO)C(=O)N[C@@H](Cc1ccccc1)C(=O)O)C(C)C", "note": "[3102.0327] (H-ATALILVSF-OH)", "IC50": 1.4}
{"smiles": "CC[C@H](C)[C@H](N)C(=O)N[C@H](C(=O)N[C@@H](Cc1c[nH]c2ccccc12)C(=O)N[C@@H](CCCCN)C(=O)NCC(=O)N[C@H](C(=O)N[C@@H](Cc1ccc(O)cc1)C(=O)N[C@H](C(=O)N[C@@H](Cc1ccc(O)cc1)C(=O)O)[C@@H](C)O)[C@@H](C)CC)[C@@H](C)CC", "note": "[3102.0441] (H-IIWKGIYTY-OH)", "IC50": 3.3}
{"smiles": "CC[C@H](C)[C@H](NC(=O)[C@H](CO)NC(=O)[C@H](CO)NC(=O)[C@@H](NC(=O)[C@H](CO)NC(=O)[C@H](Cc1ccccc1)NC(=O)[C@@H](NC(=O)[C@@H](N)CO)[C@@H](C)O)[C@@H](C)CC)C(=O)N[C@@H](Cc1ccccc1)C(=O)O", "note": "[3102.0305] (H-STFSISSIF-OH)", "IC50": 1.1}
{"smiles": "CC[C@H](C)[C@H](NC(=O)[C@@H]1CCCN1C(=O)[C@H](CC(C)C)NC(=O)[C@@H](NC(=O)[C@H](CC(N)=O)NC(=O)[C@H](Cc1ccc(O)cc1)NC(=O)[C@H](CCSC)NC(=O)[C@@H](NC(=O)[C@@H](N)Cc1ccc(O)cc1)[C@@H](C)CC)[C@@H](C)CC)C(=O)O", "note": "[3102.0384] (H-YIMYNILPI-OH)", "IC50": 39}
{"smiles": "CC[C@H](C)[C@H](NC(=O)[C@H](CC(C)C)NC(=O)[C@H](CC(C)C)NC(=O)[C@H](CC(C)C)NC(=O)[C@H](CC(C)C)NC(=O)[C@H](CC(N)=O)NC(=O)CNC(=O)[C@H](CC(C)C)NC(=O)[C@@H](N)CCCCN)C(=O)O", "note": "[3102.0406] (H-KLGNLLLLI-OH)", "IC50": 0.72}
{"smiles": "CC[C@H](C)[C@H](NC(=O)[C@H](C)NC(=O)[C@H](Cc1ccc(O)cc1)NC(=O)[C@H](CO)NC(=O)[C@H](Cc1c[nH]cn1)NC(=O)[C@H](Cc1ccccc1)NC(=O)[C@H](CC(C)C)NC(=O)[C@H](CC(C)C)NC(=O)[C@@H](N)CC(C)C)C(=O)O", "note": "[3102.0379] (H-LLLFHSYAI-OH)", "IC50": 11}
{"smiles": "CC[C@H](C)[C@H](NC(=O)[C@H](CCCNC(=N)N)NC(=O)[C@H](CCC(N)=O)NC(=O)[C@H](C)NC(=O)[C@@H](NC(=O)[C@H](CC(N)=O)NC(=O)[C@H](Cc1ccccc1)NC(=O)[C@H](CC(C)C)NC(=O)[C@@H](N)CCCCN)[C@@H](C)CC)C(=O)O", "note": "[3102.0323] (H-KLFNIAQRI-OH)", "IC50": 1.6}
{"smiles": "CC[C@H](C)[C@H](N)C(=O)N[C@H](C(=O)N[C@@H](CC(N)=O)C(=O)N[C@@H](CCCCN)C(=O)N[C@@H](Cc1ccccc1)C(=O)N[C@@H](Cc1ccccc1)C(=O)N[C@@H](CCC(=O)O)C(=O)N[C@H](C(=O)N[C@H](C(=O)O)[C@@H](C)CC)C(C)C)[C@@H](C)CC", "note": "[3102.0325] (H-IINKFFEVI-OH)", "IC50": 11}
{"smiles": "CC[C@H](C)[C@H](NC(=O)[C@@H](NC(=O)[C@H](CC(C)C)NC(=O)[C@H](CC(C)C)NC(=O)[C@H](CC(C)C)NC(=O)[C@H](CO)NC(=O)[C@H](Cc1ccccc1)NC(=O)[C@H](CC(C)C)NC(=O)[C@@H](N)CO)C(C)C)C(=O)O", "note": "[3102.0328] (H-SLFSLLLVI-OH)", "IC50": 28}
{"smiles": "CC[C@H](C)[C@H](N)C(=O)N[C@@H](CO)C(=O)N[C@@H](CC(C)C)C(=O)N[C@@H](Cc1ccccc1)C(=O)N[C@@H](Cc1ccc(O)cc1)C(=O)N[C@H](C(=O)N[C@@H](Cc1ccccc1)C(=O)N[C@@H](C)C(=O)N[C@H](C(=O)O)[C@@H](C)CC)[C@@H](C)O", "note": "[3102.0415] (H-ISLFYTFAI-OH)", "IC50": 0.57}
